Holding throughout (type): functional, cell-based
Common to all, as to details: oocyte

Data set [1] concerns the target T1, Solute carrier family 22 member 7 (Homo sapiens, UniProt Q9Y694).
T1 sequence (Q9Y694 whole entry): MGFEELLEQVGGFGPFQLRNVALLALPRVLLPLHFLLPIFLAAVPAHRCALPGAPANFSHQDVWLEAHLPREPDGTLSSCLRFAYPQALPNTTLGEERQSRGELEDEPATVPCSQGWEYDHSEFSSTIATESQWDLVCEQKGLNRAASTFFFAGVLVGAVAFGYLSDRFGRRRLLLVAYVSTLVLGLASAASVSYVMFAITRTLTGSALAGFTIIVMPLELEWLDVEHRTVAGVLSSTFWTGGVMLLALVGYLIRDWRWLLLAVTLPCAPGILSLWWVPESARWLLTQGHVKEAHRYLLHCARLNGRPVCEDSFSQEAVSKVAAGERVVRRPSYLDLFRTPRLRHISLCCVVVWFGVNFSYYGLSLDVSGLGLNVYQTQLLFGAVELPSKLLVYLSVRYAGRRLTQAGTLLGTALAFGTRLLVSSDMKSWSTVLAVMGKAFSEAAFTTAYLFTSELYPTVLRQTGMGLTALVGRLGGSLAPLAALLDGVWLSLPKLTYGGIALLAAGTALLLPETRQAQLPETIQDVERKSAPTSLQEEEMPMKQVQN
The data set is described as follows: TP_TRANSPORTER: uptake in OAT2-expressing oocytes.

Data set [2] has as its target T1, Solute carrier family 22 member 7. The data set is described as follows: TP_TRANSPORTER: inhibition of erythromycin uptake in OAT2-expressing oocytes.
Data set [3] has the same target. The data set is described as follows: TP_TRANSPORTER: inhibition of theophylline uptake in OAT2-expressing oocytes.

Turning to `Cn1c(=O)c2[nH]cnc2n(C)c1=O.O` [THEOPHYLLINE], the values for the Activity result in data set [1] and in data set [2] were “substrate []” and “inhibitor []”, respectively.

As to `CC[C@H]1OC(=O)[C@H](C)[C@@H](O[C@H]2C[C@@](C)(OC)[C@@H](O)[C@H](C)O2)[C@H](C)[C@@H](O[C@@H]2O[C@H](C)C[C@H](N(C)C)[C@H]2O)[C@](C)(O)C[C@@H](C)C(=O)[C@H](C)[C@@H](O)[C@]1(C)O` [ERYTHROMYCIN], the Activity entry is “substrate []” in data set [1] and “inhibitor []” in data set [3].

With `CC[C@H]1OC(=O)[C@H](C)[C@@H](O[C@H]2C[C@@](C)(OC)[C@@H](O)[C@H](C)O2)[C@H](C)[C@@H](O[C@@H]2O[C@H](C)C[C@H](N(C)C)[C@H]2O)[C@](C)(OC)C[C@@H](C)C(=O)[C@H](C)[C@@H](O)[C@]1(C)O` [CLARITHROMYCIN], the Activity entry in data set [3] is “inhibitor []”.

For the origin of these results see ChEMBL document CHEMBL2074379, “Possible involvement of organic anion transporter 2 on the interaction of theophylline with erythromycin in the human liver” (Drug Metab Dispos, 2005).
